# In patent US4057684A, “Alkyl amino-glucopyranoside derivative and process for producing the same” (priority 1975, dated 1977):
# Several values for one entry are separate records, joined by “and”; a condition that tells them apart may be missing. Equal entries are not always repeated. Entries after “also recorded” stand apart in the source; their conditions may differ.
# Legend:
# [1] = tested on: Nakahara-Fukuoka sarcoma (NFS); test: antitumor effect against Nakahara-Fukuoka sarcoma (NFS) implanted in mice; assay type: in vivo, mouse (ICR)
# Description: (§1) Results of pharmacological studies for amino-glucopyranoside [I] according to the invention are described below. The test compounds which were used included methyl N-carbamyl-N'-(2-chloroethyl)-N'-nitroso-2-amino-2-deoxy-α-D-glucopyranoside and methyl N-carbamyl-N'-(2-chloroethyl)-N'-nitroso-6-amino-6-deoxy-α-D-glucopyranoside (hereinafter abbreviated to 2MCαG and 6MCαG, respectively). The control compounds which were employed were 1-(2-chloroethyl)-3-cyclohexyl-1-nitrosoourea (hereinafter abbreviated to CCNU), which had been widely applied as a control compound in such a pharmacological test of the streptozotocin derivatives, and GCNU referred to previously. The tumor systems which were used were leukemia L-1210, Nakahara-Fukuoka sarcoma, adenocarcinoma-755, ascites sarcoma 180 and Ehrlich ascites carcinoma (hereinafter abbreviated to L-1210, NFS, Ca-755, S-180A and EAC, respectively), and the antitumor activities were determined by a procedure of the National Cancer Center, Tokyo (A. Hoshi et al.: Farumashia 9, 464(1973)). The test animals which were used were ICR and BDF1 mice.
# (§2) ^a Treatment was initiated 24 hr after implantation of tumor (day 1):
# (§3) D1~5 = qd, day 1~5; D1 = day 1 only.
# (§4) ^b T/C is expressed as the tumor weight ratio in solid tumors or tota
# (§5) packed cell volume ratio in ascites tumors of treated/control.
# [2] = tested on: adenocarcinoma-755 (Ca-755); test: antitumor effect against adenocarcinoma-755 (Ca-755) implanted in mice; assay type: in vivo, mouse (BDF1)
# Description: as §1, §2, §3, §4, §5
# [3] = tested on: ascites sarcoma 180 (S-180A); test: antitumor effect against ascites sarcoma 180 (S-180A) implanted in mice; assay type: in vivo, mouse (ICR)
# Description: as §1, §2, §3, §4, §5
# [4] = tested on: Ehrlich ascites carcinoma (EAC); test: antitumor effect against Ehrlich ascites carcinoma (EAC) implanted in mice; assay type: in vivo, mouse (ICR)
# Description: as §1, §2, §3, §4, §5
# leukemia L-1210 = test: increase in life span and survival of leukemia L-1210 implanted mice; assay type: in vivo, mouse (BDF1)
# Description: as §1, §2, §3
# ^d % increase in life span (mean survival time) over controls.
# ^e 60 days survivors/total in treated group.
# [5] = peripheral white blood cell counts (bone marrow toxicity) and survival in normal male ICR mice; assay type: in vivo, mouse (ICR)
# Method: Such peripheral white blood cell counts were performed as follows: Normal male ICR mice were used in groups of tens and the test compounds for treatment were made into their respective solutions. 2MCαG and 6MCαG were dissolved in physiological saline solutions, while CCNU and GCNU were suspended in 0.5% CMC aqueous solution and 50% PEG aqueous solution, respectively. A single administration at volume of 1 ml per 100 g body weight of animal (0.1 ml/10 g) was given intraperitoneally, and the peripheral white blood cell counts were performed 3, 8 and 15 days after administration of the test compounds.
# [6] = acute toxicity (LD50) in mice; assay type: in vivo, mouse (ICR); details: mouse, in vivo, ICR mice
# [7] = blood sugar level / diabetogenic activity; assay type: in vivo, rat (male Wister)
# bacteria = test: antibacterial activity, broth dilution method
# [8] = tested on: solid as well as ascites tumor systems; test: antitumor activity in the tumor systems (overall); assay type: in vivo, mouse; details: mouse, in vivo
# Description: as §1
# [9] = 3.2 mg/kg/day ip D1~5, ICR mice
# [10] = 6.3 mg/kg/day ip D1~5, ICR mice
# [11] = 12.5 mg/kg/day ip D1~5, ICR mice
# [12] = 15.0 mg/kg/day ip D1~5, ICR mice
# [13] = 20.0 mg/kg/day ip D1~5, ICR mice
# [14] = 3.2 mg/kg/day ip D1~5, BDF1 mice
# [15] = 6.3 mg/kg/day ip D1~5, BDF1 mice
# [16] = 15.0 mg/kg/day ip D1~5, BDF1 mice
# [17] = 3.2 mg/kg/day ip, 5 successive days
# [18] = 3.2 mg/kg/day ip D1~5, listed as 2MCaαG
smiles,measurement,setting,value
"CO[C@H]1O[C@H](CO)[C@@H](O)[C@H](O)[C@H]1NC(=O)N(CCCl)N=O [Example 2MCαG, methyl N-carbamyl-N'-(2-chloroethyl)-N'-nitroso-2-amino-2-deoxy-α-D-glucopyranoside]",Activity,[1]; [9],- (100~71% = -)
same,T/C,[1]; [9],86.1%
same,Activity,[1]; [10],+ (70~51% = +)
same,T/C,[1]; [10],55.2%
same,T/C,[1]; [11],44.3%
same,Activity,[1]; [12],++ (50~21% = ++)
same,T/C,[1]; [12],29.2%
same,Activity,[1]; [13],Toxic
same,died/used,[1]; [13],6/6
same,antitumor effect compared with CCNU,"[1]; ip, 5 successive days",more effective than CCNU
same,Activity,[2]; [14],++ (50~21% = ++)
same,T/C,[2]; [14],22.4%
same,Activity,[2]; [15],+++ (20~0% = +++)
same,T/C,[2]; [15],9.6%
same,T/C,"[2]; 12.5 mg/kg/day ip D1~5, BDF1 mice",3.3%
same,Activity,[2]; [16],Toxic
same,T/C,[2]; [16],0.3%
same,died/used,[2]; [16],6/6
same,antitumor effect compared with CCNU,"[2]; ip, 5 successive days",more effective than CCNU
same,Activity,[3]; [9],+++ (10~0% 10~0% = +++)
same,T/C,[3]; [9],0%
same,accumulation of ascites tumor cells,[3]; [17],no accumulation of ascites tumor cells was observable
same,T/C,[3]; [11],0%
same,Activity,[4]; [9],+++ (10~0% 10~0% = +++)
same,T/C,[4]; [9],0%
same,accumulation of ascites tumor cells,[4]; [17],no accumulation of ascites tumor cells was observable
same,T/C,[4]; [11],0%
same,ILS,leukemia L-1210; 1.0 mg/kg/day ip D1~5,48%
same,Survivors (60 days survivors/total),leukemia L-1210; 1.0 mg/kg/day ip D1~5,0/6
same,ILS,leukemia L-1210; 2.0 mg/kg/day ip D1~5,> 249%
same,Survivors (60 days survivors/total),leukemia L-1210; 2.0 mg/kg/day ip D1~5,1/6
same,ILS,leukemia L-1210; 2.0 mg/kg/day po D1~5,> 143%
same,Survivors (60 days survivors/total),leukemia L-1210; 2.0 mg/kg/day po D1~5,1/6
same,ILS,leukemia L-1210; 3.2 mg/kg/day ip D1~5,394%
same,Survivors (60 days survivors/total),leukemia L-1210; 3.2 mg/kg/day ip D1~5,3 out of 6
same,ILS,leukemia L-1210; [18],> 394%
same,Survivors (60 days survivors/total),leukemia L-1210; [18],3/6
same,ILS,leukemia L-1210; 3.2 mg/kg/day po D1~5,> 141%
same,Survivors (60 days survivors/total),leukemia L-1210; 3.2 mg/kg/day po D1~5,1/6
same,ILS,leukemia L-1210; 4.0 mg/kg/day ip D1~5,> 349%
same,Survivors (60 days survivors/total),leukemia L-1210; 4.0 mg/kg/day ip D1~5,2/6
same,ILS,leukemia L-1210; 6.3 mg/kg ip D1 only,128%
same,Survivors (60 days survivors/total),leukemia L-1210; 6.3 mg/kg ip D1 only,0/6
same,ILS,leukemia L-1210; 6.3 mg/kg/day ip D1~5,> 198%
same,Survivors (60 days survivors/total),leukemia L-1210; 6.3 mg/kg/day ip D1~5,1/6
same,ILS,leukemia L-1210; 6.3 mg/kg/day po D1~5,343% and > 343%
same,Survivors (60 days survivors/total),leukemia L-1210; 6.3 mg/kg/day po D1~5,2 out of 6 and 2/6
same,ILS,leukemia L-1210; 8.0 mg/kg ip D1 only,> 432%
same,Survivors (60 days survivors/total),leukemia L-1210; 8.0 mg/kg ip D1 only,3/6
same,ILS,leukemia L-1210; 10.0 mg/kg ip D1 only,> 717%
same,Survivors (60 days survivors/total),leukemia L-1210; 10.0 mg/kg ip D1 only,6/6
same,ILS,leukemia L-1210; 10.0 mg/kg/day ip D1~5,> 190%
same,Survivors (60 days survivors/total),leukemia L-1210; 10.0 mg/kg/day ip D1~5,1/6
same,ILS,leukemia L-1210; 12.5 mg/kg/day ip D1~5,> 160%
same,Survivors (60 days survivors/total),leukemia L-1210; 12.5 mg/kg/day ip D1~5,1/6
same,ILS,leukemia L-1210; 12.5 mg/kg/day po D1~5,211%
same,Survivors (60 days survivors/total),leukemia L-1210; 12.5 mg/kg/day po D1~5,0/6
same,ILS,leukemia L-1210; 20.0 mg/kg ip D1 only,> 717%
same,Survivors (60 days survivors/total),leukemia L-1210; 20.0 mg/kg ip D1 only,6/6
same,ILS,leukemia L-1210; 20.0 mg/kg/day ip D1~5,58%
same,Survivors (60 days survivors/total),leukemia L-1210; 20.0 mg/kg/day ip D1~5,0/6
same,ILS,leukemia L-1210; 25.0 mg/kg ip D1 only,> 539%
same,Survivors (60 days survivors/total),leukemia L-1210; 25.0 mg/kg ip D1 only,> 4/6
same,single dose compared with five dose schedule,leukemia L-1210; ip,might be more effective than a five dose schedule
same,activity against L-1210 compared with CCNU and GCNU,"leukemia L-1210; mouse, in vivo",more active against L-1210
same,ILS,leukemia L-1210; single 10-20 mg/kg ip,717%
same,animals survived,leukemia L-1210; single 10-20 mg/kg ip,all 6 animals survived
same,Death rate (death/used),[5]; 10 mg/kg ip single,0/10
same,Average count of WBC,"[5]; 10 mg/kg ip single, day 3",74.0±4.6 x 10^2 WBC/mm^3
same,Average count of WBC,"[5]; 10 mg/kg ip single, day 8",105.6±4.5 x 10^2 WBC/mm^3
same,Average count of WBC,"[5]; 10 mg/kg ip single, day 15",131.8±5.4 x 10^2 WBC/mm^3
same,Death rate (death/used),[5]; 20 mg/kg ip single,2/10
same,Average count of WBC,"[5]; 20 mg/kg ip single, day 3",46.3±9.5 x 10^2 WBC/mm^3
same,Average count of WBC,"[5]; 20 mg/kg ip single, day 8",101.0±16.5 x 10^2 WBC/mm^3
same,Average count of WBC,"[5]; 20 mg/kg ip single, day 15",129.4±20.1 x 10^2 WBC/mm^3
same,Death rate (death/used),[5]; 40 mg/kg ip single,10/10
same,Average count of WBC,"[5]; 40 mg/kg ip single, day 3",30.8±2.8 x 10^2 WBC/mm^3
same,Death rate (death/used),[5]; 60 mg/kg ip single,10/10
same,Average count of WBC,"[5]; 60 mg/kg ip single, day 3",35.4±2.9 x 10^2 WBC/mm^3
same,Death rate (death/used),[5]; 80 mg/kg ip single,10/10
same,Average count of WBC,"[5]; 80 mg/kg ip single, day 3",32.0±3.8 x 10^2 WBC/mm^3
same,incidence of leukopenia,[5]; LD10 doses,comparatively mild with rapid return to pretreatment levels
same,bone marrow toxicity,"[5]; mouse, in vivo",improved bone marrow toxicity
same,bone marrow toxicity compared with CCNU,"[5]; mouse, in vivo",less toxic
same,bone marrow toxicity compared with GCNU,"[5]; mouse, in vivo",equivalent values as GCNU
same,LD50,"[6]; 5 doses, qd",16 mg/kg
same,LD50,[6]; single dose,48 mg/kg
same,blood sugar level,"[7]; one-month administration, qd, day 1-30, male Wister rat, glucose oxidase method",neither elevation nor depression tendencies
same,diabetogenic activity,"[7]; rat, in vivo",free from diabetogenic
same,antibacterial activity,bacteria,without any antibacterial activities; also recorded: free from diabetogenic and antibacterial activities
same,antitumor activity,[8],activity against solid as well as ascites tumor systems
